From patent US4684664A, “Derivatives of β-(4-isocyano-1,2,3,4-diepoxycyclopentyl) acrylic acid” (Kureha Kagaku Kogyo Kabushiki Kaisha, priority 1984, dated 1987)
In brackets after ≈: the same amount, converted by molar mass.

Columns and labels:
Format in all cases: cell-based
[1] = test system: Staphylococcus aureus FDA 209PJc-1; experiment: Antibacterial activity, agar-dilution MIC, organism No. 1; conditions: Staphylococcus aureus, FDA209PJC1; Organism No. 1, bouillon-agar; read-out: Minimum Inhibitory Concentration
Description: (§1) Agar-dilution method was used for determination of the antibacterial activity and antifungal activity while using bouillon-agar culture medium, and the minimum inhibitory concentration of the specimen was expressed by μg/ml of the culture medium.

[2] = test system: Staphylococcus aureus Terajima; experiment: Antibacterial activity, agar-dilution MIC, organism No. 2; conditions: Staphylococcus aureus; Organism No. 2, bouillon-agar; read-out: Minimum Inhibitory Concentration
Description: as §1

[3] = test system: Salmonella shottmuelleri 8006; experiment: Antibacterial activity, agar-dilution MIC, organism No. 11; conditions: Salmonella, 8006; Organism No. 11, bouillon-agar; read-out: Minimum Inhibitory Concentration
Description: as §1

[4] = test system: Enterobacter aerogenes ATCC 13048; experiment: Antibacterial activity, agar-dilution MIC, organism No. 23; conditions: Klebsiella aerogenes, ATCC13048; Organism No. 23, bouillon-agar; read-out: Minimum Inhibitory Concentration
Description: as §1

Enterobacter cloacae 963 = experiment: Antibacterial activity, agar-dilution MIC, organism No. 24; conditions: Enterobacter cloacae, 963; Organism No. 24, bouillon-agar; read-out: Minimum Inhibitory Concentration
Description: as §1

[5] = test system: Salmonella paratyphi-A 1015; experiment: Antibacterial activity, agar-dilution MIC, organism No. 10; conditions: Salmonella enterica, PARATYPHI, read-out: Minimum Inhibitory Concentration
Description: as §1

[6] = test system: Streptococcus pyogenes Cook; experiment: Antibacterial activity, agar-dilution MIC, organism No. 4; conditions: Streptococcus pyogenes; Organism No. 4, bouillon-agar; read-out: Minimum Inhibitory Concentration
Description: as §1

[7] = test system: Bacillus subtilis ATCC 6633; experiment: Antibacterial activity, agar-dilution MIC, organism No. 14; conditions: Bacillus subtilis, ATCC6633; Organism No. 14, bouillon-agar; read-out: Minimum Inhibitory Concentration
Description: as §1

[8] = test system: Aspergillus niger IFO 6342; experiment: Antifungal activity, agar-dilution MIC, organism No. 30; conditions: Aspergillus niger, IFO6342; Organism No. 30, bouillon-agar; read-out: Minimum Inhibitory Concentration
Description: as §1

[9] = test system: Proteus mirabilis IFO 3849; experiment: Antibacterial activity, agar-dilution MIC, organism No. 19; conditions: Proteus mirabilis, IFO3849; Organism No. 19, bouillon-agar; read-out: Minimum Inhibitory Concentration
Description: as §1

[10] = test system: Pseudomonas aeruginosa NCTC 10490; experiment: Antibacterial activity, agar-dilution MIC, organism No. 16; conditions: Pseudomonas aeruginosa, NCTC10490; Organism No. 16, bouillon-agar; read-out: Minimum Inhibitory Concentration
Description: as §1

[11] = test system: Pseudomonas aeruginosa PAO 1; experiment: Antibacterial activity, agar-dilution MIC, organism No. 17; conditions: Pseudomonas aeruginosa, PAO1; Organism No. 17, bouillon-agar; read-out: Minimum Inhibitory Concentration
Description: as §1

[12] = test system: Streptococcus pyogenes IFO 3340; experiment: Antibacterial activity, agar-dilution MIC, organism No. 26; conditions: Streptococcus pyogenes, IFO3340; Organism No. 26, bouillon-agar; read-out: Minimum Inhibitory Concentration
Description: as §1

[13] = test system: Micrococcus luteus ATCC 9341; experiment: Antibacterial activity, agar-dilution MIC, organism No. 25; conditions: Micrococcus luteus, ATCC9341; Organism No. 25, bouillon-agar; read-out: Minimum Inhibitory Concentration
Description: as §1

[14] = test system: Proteus morganii IFO 3848; experiment: Antibacterial activity, agar-dilution MIC, organism No. 18; conditions: Morganella morganii, IFO3848; Organism No. 18, bouillon-agar; read-out: Minimum Inhibitory Concentration
Description: as §1

[15] = test system: Staphylococcus aureus MS 353; experiment: Antibacterial activity, agar-dilution MIC, organism No. 3; conditions: Staphylococcus aureus, MS353; Organism No. 3, bouillon-agar; read-out: Minimum Inhibitory Concentration
Description: as §1

Proteus vulgaris HX-19 = experiment: Antibacterial activity, agar-dilution MIC, organism No. 21; conditions: Proteus vulgaris, HX19; Organism No. 21, bouillon-agar; read-out: Minimum Inhibitory Concentration
Description: as §1

Proteus vulgaris OX-19 = experiment: Antibacterial activity, agar-dilution MIC, organism No. 20; conditions: Proteus vulgaris, OX19; Organism No. 20, bouillon-agar; read-out: Minimum Inhibitory Concentration
Description: as §1

[16] = test system: Salmonella enteritidis G 14; experiment: Antibacterial activity, agar-dilution MIC, organism No. 12; conditions: Salmonella enterica, ENTERITIDIS; Organism No. 12, bouillon-agar; read-out: Minimum Inhibitory Concentration
Description: as §1

Salmonella typhi 901 = experiment: Antibacterial activity, agar-dilution MIC, organism No. 9; conditions: Salmonella enterica, TYPHI, read-out: Minimum Inhibitory Concentration
Description: as §1

[17] = test system: Salmonella typhimurium IID 971; experiment: Antibacterial activity, agar-dilution MIC, organism No. 8; conditions: Salmonella enterica; Organism No. 8, bouillon-agar; read-out: Minimum Inhibitory Concentration
Description: as §1

[18] = test system: Proteus rettgeri IFO 3850; experiment: Antibacterial activity, agar-dilution MIC, organism No. 22; conditions: Providencia rettgeri, IFO3850; Organism No. 22, bouillon-agar; read-out: Minimum Inhibitory Concentration
Description: as §1

[19] = test system: Klebsiella pneumoniae PCI-602; experiment: Antibacterial activity, agar-dilution MIC, organism No. 7; conditions: Klebsiella pneumoniae, PCI602; Organism No. 7, bouillon-agar; read-out: Minimum Inhibitory Concentration
Description: as §1

[20] = test system: Escherichia coli NIHJ-JC-2; experiment: Antibacterial activity, agar-dilution MIC, organism No. 5; conditions: Escherichia coli, NIHJJC2; Organism No. 5, bouillon-agar; read-out: Minimum Inhibitory Concentration
Description: as §1

[21] = test system: Candida albicans IAM 4905; experiment: Antifungal activity, agar-dilution MIC, organism No. 29; conditions: Candida albicans, IAM4905; Organism No. 29, bouillon-agar; read-out: Minimum Inhibitory Concentration
Description: as §1

[22] = test system: Mycoplasma pneumoniae IID817; experiment: Antimycoplasmal activity, MIC by phenol red colour change, organism No. 28; conditions: Mycoplasma, IID817; Organism No. 28, PPLO broth + 1% glucose, 37° C.; read-out: Minimum Inhibitory Concentration (MIC)
Protocol: Mycoplasma pneumoniae IID817 was used as the test microorganism in a culture medium prepared by adding 1% of glucose to "PPLO broth (manufactured by Difco Co.) liquid culture medium" at 37° C. with phenol red as an indicator, thereby culturing the test microorganism.

[23] = test system: Pseudomonas aeruginosa IFO 3445; experiment: Antibacterial activity, agar-dilution MIC, organism No. 15; conditions: Pseudomonas aeruginosa, IFO3445; Organism No. 15, bouillon-agar; read-out: Minimum Inhibitory Concentration
Description: as §1

[24] = test system: Escherichia coli K12 C600 IAM 1264; experiment: Antibacterial activity, agar-dilution MIC, organism No. 6; conditions: Escherichia coli, IAM1264; Organism No. 6, bouillon-agar; read-out: Minimum Inhibitory Concentration
Description: as §1

[25] = test system: Streptococcus faecium IFO 3826; experiment: Antibacterial activity, agar-dilution MIC, organism No. 27; conditions: Enterococcus faecium, IFO3826; Organism No. 27, bouillon-agar; read-out: Minimum Inhibitory Concentration
Description: as §1

[C-]#[N+]C12CC3(/C=C/C(=O)Nc4ccccc4)OC3C1O2 (stereo not shown) [Compound No. 36]
MIC [1]: 0.39 µg/mL (≈ 1.45 µM) | MIC [2]: 0.78 µg/mL (≈ 2.91 µM) | MIC [3]: < 0.05 µg/mL | MIC [4]: > 200 µg/mL | MIC (Enterobacter cloacae 963): 200 µg/mL (≈ 746 µM) | MIC [5]: 0.39 µg/mL (≈ 1.45 µM) | MIC [6]: 1.56 µg/mL (≈ 5.81 µM) | MIC [7]: 12.5 µg/mL (≈ 46.6 µM) | MIC [8]: 1.56 µg/mL (≈ 5.81 µM) | MIC [9]: 12.5 µg/mL (≈ 46.6 µM) | MIC [10]: > 200 µg/mL | MIC [11]: > 200 µg/mL | MIC [12]: 0.2 µg/mL (≈ 0.746 µM) | MIC [13]: < 0.05 µg/mL | MIC [14]: 0.39 µg/mL (≈ 1.45 µM) | MIC [15]: 0.39 µg/mL (≈ 1.45 µM) | MIC (Proteus vulgaris HX-19): < 0.05 µg/mL | MIC (Proteus vulgaris OX-19): 0.78 µg/mL (≈ 2.91 µM) | MIC [16]: 0.78 µg/mL (≈ 2.91 µM) | MIC (Salmonella typhi 901): 3.13 µg/mL (≈ 11.7 µM) | MIC [17]: 12.5 µg/mL (≈ 46.6 µM) | MIC [18]: 3.13 µg/mL (≈ 11.7 µM) | MIC [19]: 0.39 µg/mL (≈ 1.45 µM) | MIC [20]: 12.5 µg/mL (≈ 46.6 µM) | MIC [21]: 0.39 µg/mL (≈ 1.45 µM) | MIC [22]: < 0.2 µg/mL | MIC [23]: > 200 µg/mL | MIC [24]: 6.25 µg/mL (≈ 23.3 µM)

[C-]#[N+]C12CC3(/C=C/C(=O)NC4C(=O)N5C(C(=O)OCC(=O)c6ccc(Br)cc6)=C(C)CSC45)OC3C1O2 (stereo not shown) [compound 34]
MIC [1]: > 100 µg/mL | MIC [2]: > 100 µg/mL | MIC [3]: > 100 µg/mL | MIC [4]: > 100 µg/mL | MIC (Enterobacter cloacae 963): > 100 µg/mL | MIC [5]: > 100 µg/mL | MIC [6]: > 100 µg/mL | MIC [7]: > 100 µg/mL | MIC [8]: > 100 µg/mL | MIC [9]: > 100 µg/mL | MIC [10]: > 100 µg/mL | MIC [11]: > 100 µg/mL | MIC [12]: > 100 µg/mL | MIC [14]: > 100 µg/mL | MIC [15]: > 100 µg/mL | MIC (Proteus vulgaris HX-19): 100 µg/mL (≈ 171 µM) | MIC (Proteus vulgaris OX-19): > 100 µg/mL | MIC [16]: > 100 µg/mL | MIC (Salmonella typhi 901): > 100 µg/mL | MIC [17]: > 100 µg/mL | MIC [18]: > 100 µg/mL | MIC [19]: > 100 µg/mL | MIC [25]: > 100 µg/mL | MIC [20]: > 100 µg/mL | MIC [21]: > 100 µg/mL | MIC [22]: > 100 µg/mL | MIC [23]: > 100 µg/mL | MIC [24]: > 100 µg/mL

[C-]#[N+]C12CC3(/C=C/C(=O)N4CCN(C)CC4)OC3C1O2 (stereo not shown) [compound 23]
MIC [1]: 200 µg/mL (≈ 726 µM) | MIC [2]: > 200 µg/mL | MIC [3]: 50 µg/mL (≈ 182 µM) | MIC [4]: > 200 µg/mL | MIC (Enterobacter cloacae 963): 200 µg/mL (≈ 726 µM) | MIC [5]: 25 µg/mL (≈ 90.8 µM) | MIC [6]: 50 µg/mL (≈ 182 µM) | MIC [7]: 200 µg/mL (≈ 726 µM) | MIC [8]: 3.13 µg/mL (≈ 11.4 µM) | MIC [9]: > 200 µg/mL | MIC [10]: > 200 µg/mL | MIC [11]: > 200 µg/mL | MIC [12]: 50 µg/mL (≈ 182 µM) | MIC [13]: < 0.05 µg/mL | MIC [14]: 12.5 µg/mL (≈ 45.4 µM) | MIC [15]: 200 µg/mL (≈ 726 µM) | MIC (Proteus vulgaris HX-19): 25 µg/mL (≈ 90.8 µM) | MIC (Proteus vulgaris OX-19): 25 µg/mL (≈ 90.8 µM) | MIC [16]: 25 µg/mL (≈ 90.8 µM) | MIC (Salmonella typhi 901): 12.5 µg/mL (≈ 45.4 µM) | MIC [17]: 50 µg/mL (≈ 182 µM) | MIC [18]: > 200 µg/mL | MIC [19]: 200 µg/mL (≈ 726 µM) | MIC [25]: 100 µg/mL (≈ 363 µM) | MIC [20]: 50 µg/mL (≈ 182 µM) | MIC [21]: 1.56 µg/mL (≈ 5.67 µM) | MIC [23]: > 200 µg/mL | MIC [24]: 50 µg/mL (≈ 182 µM)

[C-]#[N+]C12CC3(/C=C/C(=O)N4CCC[C@H]4C(=O)OCc4ccccc4)OC3C1O2 (stereo partly shown) [compound 32]
MIC [1]: 200 µg/mL (≈ 526 µM) | MIC [2]: 200 µg/mL (≈ 526 µM) | MIC [3]: > 200 µg/mL | MIC (Enterobacter cloacae 963): > 200 µg/mL | MIC [5]: > 200 µg/mL | MIC [6]: > 200 µg/mL | MIC [7]: > 200 µg/mL | MIC [8]: > 100 µg/mL | MIC [9]: > 200 µg/mL | MIC [10]: > 200 µg/mL | MIC [11]: > 200 µg/mL | MIC [12]: 200 µg/mL (≈ 526 µM) | MIC [13]: 1.56 µg/mL (≈ 4.1 µM) | MIC [14]: > 200 µg/mL | MIC [15]: 200 µg/mL (≈ 526 µM) | MIC (Proteus vulgaris HX-19): > 200 µg/mL | MIC (Proteus vulgaris OX-19): > 200 µg/mL | MIC [16]: > 200 µg/mL | MIC (Salmonella typhi 901): > 200 µg/mL | MIC [17]: > 200 µg/mL | MIC [18]: > 200 µg/mL | MIC [19]: > 200 µg/mL | MIC [25]: 200 µg/mL (≈ 526 µM) | MIC [20]: > 200 µg/mL | MIC [21]: > 100 µg/mL | MIC [22]: > 100 µg/mL | MIC [23]: > 200 µg/mL | MIC [24]: > 200 µg/mL
